This assay has as its target T1, Glucocorticoid Receptor (GR) (Homo sapiens, UniProt P04150).
T1 construct: purchased Invitrogen P2816
T1 sequence (P04150 1-777): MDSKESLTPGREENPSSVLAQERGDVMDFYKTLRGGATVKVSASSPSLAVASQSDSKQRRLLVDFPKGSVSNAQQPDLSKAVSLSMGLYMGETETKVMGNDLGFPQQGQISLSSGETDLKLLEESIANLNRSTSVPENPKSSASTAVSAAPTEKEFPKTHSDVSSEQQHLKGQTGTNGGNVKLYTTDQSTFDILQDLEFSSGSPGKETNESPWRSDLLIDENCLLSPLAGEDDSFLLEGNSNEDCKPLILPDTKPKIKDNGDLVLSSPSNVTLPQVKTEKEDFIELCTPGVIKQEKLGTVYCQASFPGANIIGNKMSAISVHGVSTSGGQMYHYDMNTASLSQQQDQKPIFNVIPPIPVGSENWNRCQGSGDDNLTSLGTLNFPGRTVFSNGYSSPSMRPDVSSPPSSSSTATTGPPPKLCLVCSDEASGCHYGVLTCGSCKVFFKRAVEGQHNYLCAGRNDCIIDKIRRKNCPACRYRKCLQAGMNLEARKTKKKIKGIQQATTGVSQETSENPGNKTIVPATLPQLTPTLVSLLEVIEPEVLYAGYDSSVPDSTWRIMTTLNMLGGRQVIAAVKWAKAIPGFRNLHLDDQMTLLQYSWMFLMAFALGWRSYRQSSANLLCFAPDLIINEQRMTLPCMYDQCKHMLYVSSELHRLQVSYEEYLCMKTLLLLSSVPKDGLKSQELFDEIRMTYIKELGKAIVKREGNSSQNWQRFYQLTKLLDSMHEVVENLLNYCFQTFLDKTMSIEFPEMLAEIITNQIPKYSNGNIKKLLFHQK
Nature of the assay: GR receptor competitor assay by fluorescence polarization (Invitrogen GR competitor assay kit, cat No. P2816). To be noted: 20 μM test compound solution, 10 μL per well plus 5 μL 4×GS1 and 5 μL 4×GR solution; recombinant human GR; 2 to 4 hours at room temperature; a ratio of 100% or more is indicated by 100%; read-out: GR Binding ratio (%). The procedure: A detailed explanation of this matter will be described in the section of “Pharmacological Test” in Examples described below. In order to find the usefulness of the present compound as a pharmaceutical, a glucocorticoid receptor competitor assay was carried out by a fluorescence polarization method by using a glucocorticoid receptor competitor assay kit (manufactured by Invitrogen, cat No P2816) to study the glucocorticoid receptor binding activity of the present compound.
1. Evaluation Test for Binding Activity to Glucocorticoid Receptor (Hereinafter Referred to as “GR”)
In order to evaluate a binding activity to GR, a receptor competitor assay was carried out by a fluorescence polarization method. In the assay, a GR competitor assay kit (manufactured by Invitrogen, cat No. P2816) was used, and a procedure was carried out according to the protocol attached to the kit. Hereinafter, the specific method will be described.
(Preparation of Reagents)
GR screening buffer: A buffer containing 10 mM potassium phosphate (pH 7.4), 20 mM sodium molybdate (Na2MoO4), 0.1 mM ethylene diamine tetraacetic acid (EDTA), 5 mM dithiothreitol (DTT), 0.1 mM stabilizing peptide and 2% dimethylsulfoxide was prepared.
4×GS1 solution: Fluormone™ GS1, which is a fluorescent glucocorticoid ligand, was diluted with GR screening buffer, whereby a 4 nM solution was prepared.
4×GR solution: Recombinant human GR was diluted with GR screening buffer, whereby a 16 nM solution was prepared.
(Preparation of Test Compound Solution)
After a test compound was dissolved in dimethylsulfoxide, the resulting solution was diluted with GR screening buffer, whereby a 20 μM test compound solution was prepared.
(Test Method and Measurement Method)
1) The test compound solution was added in an amount of 10 μL into each well of a 384-well plate, and then, 4×GS1 solution and 4×GR solution were added in an amount of 5 μL into each well, respectively.
2) The plate was incubated in a dark place at room temperature for 2 to 4 hours.
3) By using a multimode plate reader, Analyst™ HT (manufactured by LJL Biosystems), fluorescence polarization of each well was measured. As the blank, a well containing GR screening buffer in place of the test compound and 4×GS1 solution was used.
4) The same procedure as that in the above 1) to 3) was carried out except that GR screening buffer was used in place of the test compound solution, and the obtained result was taken as the negative control.
5) The same procedure as that in the above 1) to 3) was carried out except that 2 mM dexamethasone was used in place of the test compound solution, and the obtained result was taken as the positive control.
(Calculation Equation of GR Binding Ratio)
A GR binding ratio (%) was calculated from the following equation. GR binding ratio (%)=100×[1−(fluorescence polarization of test compound solution−fluorescence polarization of positive control solution)/(fluorescence polarization of negative control solution−fluorescence polarization of positive control solution)] (Test Results and Discussion)
For orientation: Polarisation of emitted light reports the rotation of a fluorescent probe.

Molecules are shown by their SMILES.

Data on 20 molecules can be found in patent US8440660B2 (Santen Pharmaceutical Co., Ltd., priority 2006, dated 2013).

`COc1cc(OC(=O)c2cncnc2)ccc1-c1ccc2c(c1COc1cc(F)ccc1C)C(C)=CC(C)(C)N2` [Compound 1-78, 5-(5-Fluoro-2-methylphenoxymethyl)-6-[2-methoxy-4-(pyrimidin-5-ylcarbonyloxy)phenyl]-2,2,4-trimethyl-1,2-dihydroquinoline]: the inhibition at 10 µM was determined as 100%.

Regarding `COc1cc(OC(=O)N2CCOCC2)ccc1-c1ccc2c(c1COc1cc(F)ccc1C)C(C)=CC(C)(C)N2` [Compound 6-18, 5-(5-Fluoro-2-methylphenoxymethyl)-6-[2-methoxy-4-(morpholin-4-ylcarbonyloxy)phenyl]-2,2,4-trimethyl-1,2-dihydroquinoline], the inhibition at 10 µM came to 100%. The figure for `CCCCS(=O)(=O)Oc1ccc(-c2ccc3c(c2COc2cc(F)ccc2C)C(C)=CC(C)(C)N3)c(OC)c1` [Compound 4-14, 6-(4-Butylsulfonyloxy-2-methoxyphenyl)-5-(5-fluoro-2-methylphenoxymethyl)-2,2,4-trimethyl-1,2-dihydroquinoline] is 90%. As for `CCS(=O)(=O)Oc1ccc(-c2ccc3c(c2COc2cc([N+](=O)[O-])ccc2C)C(C)=CC(C)(C)N3)c(OC)c1` [Compound 4-23, 6-(4-Ethylsulfonyloxy-2-methoxyphenyl)-5-(2-methyl-5-nitrophenoxymethyl)-2,2,4-trimethyl-1,2-dihydroquinoline], the inhibition at 10 µM was found to be 100%. The figure for `CCCS(=O)(=O)Oc1ccc(-c2ccc3c(c2COc2cc(F)ccc2C)C(C)=CC(C)(C)N3)c(OC)c1` [Compound 4-11, 5-(5-Fluoro-2-methylphenoxymethyl)-6-(2-methoxy-4-propylsulfonyloxyphenyl)-2,2,4-trimethyl-1,2-dihydroquinoline] is 100%; for `COc1ccc([N+](=O)[O-])cc1OCc1c(-c2ccc(OC(=O)c3ccccc3Cl)cc2OC)ccc2c1C(C)=CC(C)(C)N2` [Compound 1-98, 6-[4-(2-Chlorobenzoyloxy)-2-methoxyphenyl]-5-(2-methoxy-5-nitrophenoxymethyl)-2,2,4-trimethyl-1,2-dihydroquinoline] it is 100%. The figure for `COc1cc(OC(=O)c2cccnc2C)ccc1-c1ccc2c(c1COc1cc(F)ccc1C)C(C)=CC(C)(C)N2` [Compound 1-63, 5-(5-Fluoro-2-methylphenoxymethyl)-6-[2-methoxy-4-(2-methylpyridin-3-ylcarbonyloxy)phenyl]-2,2,4-trimethyl-1,2-dihydroquinoline] is 100%; for `COc1cc(OC(=O)c2ccccc2OC(C)=O)ccc1-c1ccc2c(c1COc1cc(F)ccc1C)C(C)=CC(C)(C)N2` [Compound 1-50, 6-[4-(2-Acetoxybenzoyloxy)-2-methoxyphenyl]-5-(5-fluoro-2-methylphenoxymethyl)-2,2,4-trimethyl-1,2-dihydroquinoline] it is 97%; for `COc1ccccc1C(=O)Oc1ccc(-c2ccc3c(c2COc2cc(F)ccc2C)C(C)=CC(C)(C)N3)c(OC)c1` [Compound 1-8, 5-(5-Fluoro-2-methylphenoxymethyl)-6-[2-methoxy-4-(2-methoxybenzoyloxy)phenyl]-2,2,4-trimethyl-1,2-dihydroquinoline] it is 100%. The figure for `COc1cc(OC(=O)c2cccnc2OC)ccc1-c1ccc2c(c1COc1cc(F)ccc1C)C(C)=CC(C)(C)N2` [Compound 1-125, 5-(5-Fluoro-2-methylphenoxymethyl)-6-[2-methoxy-4-(2-methoxypyridin-3-ylcarbonyloxy)phenyl]-2,2,4-trimethyl-1,2-dihydroquinoline] is 100%. Take `COc1cc(OS(=O)(=O)C(C)C)ccc1-c1ccc2c(c1COc1cc([N+](=O)[O-])ccc1C)C(C)=CC(C)(C)N2` [Compound 4-26, 6-(4-Isopropylsulfonyloxy-2-methoxyphenyl)-5-(2-methyl-5-nitrophenoxymethyl)-2,2,4-trimethyl-1,2-dihydroquinoline]: the inhibition at 10 µM was 100%. The figure for `COc1cc(OC(=O)c2occc2C)ccc1-c1ccc2c(c1COc1cc(F)ccc1C)C(C)=CC(C)(C)N2` [Compound 1-71, 5-(5-Fluoro-2-methylphenoxymethyl)-6-[2-methoxy-4-(3-methylfuran-2-ylcarbonyloxy)phenyl]-2,2,4-trimethyl-1,2-dihydroquinoline] is 100%; for `COc1cc(OS(=O)(=O)C2CCCC2)ccc1-c1ccc2c(c1COc1cc(F)ccc1C)C(C)=CC(C)(C)N2` [Compound 4-29, 6-(4-Cyclopentylsulfonyloxy-2-methoxyphenyl)-5-(5-fluoro-2-methylphenoxymethyl)-2,2,4-trimethyl-1,2-dihydroquinoline] it is 100%; for `COc1cc(OC(=O)c2ccccc2SC)ccc1-c1ccc2c(c1COc1cc(F)ccc1C)C(C)=CC(C)(C)N2` [Compound 1-52] it is 96%. The figure for `COc1cc(OC(=O)c2cccnc2)ccc1-c1ccc2c(c1COc1cc([N+](=O)[O-])ccc1C)C(C)=CC(C)(C)N2` [Compound 1-94, 6-[2-Methoxy-4-(pyridin-3-ylcarbonyloxy)phenyl]-5-(2-methyl-5-nitrophenoxymethyl)-2,2,4-trimethyl-1,2-dihydroquinoline] is 100%. The figure for `COc1cc(OC(=O)c2ccc(C)o2)ccc1-c1ccc2c(c1COc1cc(F)ccc1C)C(C)=CC(C)(C)N2` [Compound 1-62, 5-(5-Fluoro-2-methylphenoxymethyl)-6-[2-methoxy-4-(5-methylfuran-2-ylcarbonyloxy)phenyl]-2,2,4-trimethyl-1,2-dihydroquinoline] is 100%; for `COc1ccc([N+](=O)[O-])cc1OCc1c(-c2ccc(OC(=O)c3ccsc3)cc2OC)ccc2c1C(C)=CC(C)(C)N2` [Compound 1-115, 5-(2-Methoxy-5-nitrophenoxymethyl)-6-[2-methoxy-4-(thiophen-3-ylcarbonyloxy)phenyl]-2,2,4-trimethyl-1,2-dihydroquinoline] it is 97%; for `COc1cc(OC(=O)Cc2ccccc2)ccc1-c1ccc2c(c1COc1cc(F)ccc1C)C(C)=CC(C)(C)N2` [Compound 1-21, 5-(5-Fluoro-2-methylphenoxymethyl)-6-(2-methoxy-4-phenylacetoxyphenyl)-2,2,4-trimethyl-1,2-dihydroquinoline] it is 100%.

Take `COc1ccccc1C(=O)Oc1ccc(-c2ccc3c(c2COc2cc([N+](=O)[O-])ccc2C)C(C)=CC(C)(C)N3)c(OC)c1` [Compound 1-93, 6-[2-Methoxy-4-(2-methoxybenzoyloxy)phenyl]-5-(2-methyl-5-nitrophenoxymethyl)-2,2,4-trimethyl-1,2-dihydroquinoline]: the inhibition at 10 µM was 92%. As to `COc1cc(OC(=O)c2cocn2)ccc1-c1ccc2c(c1COc1cc(F)ccc1C)C(C)=CC(C)(C)N2` [Compound 1-56, 5-(5-Fluoro-2-methylphenoxymethyl)-6-[2-methoxy-4-(oxazol-4-ylcarbonyloxy)phenyl]-2,2,4-trimethyl-1,2-dihydroquinoline], the inhibition at 10 µM was 100%.
